From patent publication US9969766B2, “20(R)-ginsenoside Rg3 polyacylated derivatives, preparation and application thereof” (priority 2014, dated 2018)
Read-outs that look alike come from different tables or passages of the source.

Assays:
[1] = test system: mouse Lewis lung cancer; test: Mouse Lewis lung cancer, toe subcutaneous inoculation, anti-tumor test; conditions: po × 14bid
Excerpt: (§1) human breast cancer Bcap-37 model, human lung cancer A549 model, human intestinal cancer LOVO model, human stomach cancer MGC model and human liver cancer QGY model, with tumor cell lines being of the second generation or more, mouse B16 melanoma cell line, mouse Lewis lung cancer model, mouse sarcoma s180 model, all passaged and preserved in Pharmacological Division of Shanghai Institute of Pharmaceutical Industry. 3. Experiment Animals Origins: nude mice, 6-week old, 18-22 g/mouse, provided by Laboratory Animal Center of Chinese Academy of Sciences, Shanghai Branch, with certification No. 2001A032. C57BL/6 mice and Kunming mice, 18-22 g/mouse, provided by Laboratory Animal Center of Chinese Academy of Sciences, Shanghai Branch, with certification SYXK (Shanghai) 2004-0015. Gender: male or female, the same gender for each batch in experiment Animal numbers: 10 mice and 10 nude mice for each of positive control group and test group in experiment, and 20 for negative control group. 4. Experiment Design Dose Settings: doses for 20(R)-ginsenoside Rg3 octo-acetate, 20(R)-ginsenoside Rg3 octo-n-butyrate and 20(R)-ginsenoside Rg3 octo-n-propionate were set as high-dose group (0.3 mg/kg/d), medium-dose group (0.06 mg/kg/d), and low-dose group (0.012 mg/kg/d). Dosage regimen: oral administration, twice daily. human tumor model and cell-inoculated mouse model: po×14 bid; mouse tumor-inoculated model: po×10 bid. Control Trial: negative control group: given with the same volume of 5% CMC-Na as the test group, and the same dosage regimen as the test group. positive control group: Cyclophosphamide CTX 30 mg/kg, […] 5. Experiment Method and Key Steps 5.1 Anti-Tumor Test 5.1.1 Subcutaneous Inoculation Model
(§2) Tumor cells of vigorous growth stage were taken under sterile condition and made into cell suspensions of about 1-2×10^7/ml by homogenization, the suspensions were inoculated subcutaneously at 0.2 ml/mouse in host mice and repeated on the next day according to the experiment design, the animals in each group were slaughtered after about three weeks, the tumors were collected and weighed, and the tumor inhibition rates were calculated according to the following equation: tumor inhibition rate %=[(average tumor weight of control group-average tumor weight of treatment group)/average tumor weight of control group]×100%

[2] = test system: mouse Lewis lung cancer; test: Mouse Lewis lung cancer (subcutaneous inoculation) metastasis model; conditions: po × 14bid
Excerpt: (§3) human breast cancer Bcap-37 model, human lung cancer A549 model, human intestinal cancer LOVO model, human stomach cancer MGC model and human liver cancer QGY model, with tumor cell lines being of the second generation or more, mouse B16 melanoma cell line, mouse Lewis lung cancer model, mouse sarcoma s180 model, all passaged and preserved in Pharmacological Division of Shanghai Institute of Pharmaceutical Industry. 3. Experiment Animals Origins: nude mice, 6-week old, 18-22 g/mouse, provided by Laboratory Animal Center of Chinese Academy of Sciences, Shanghai Branch, with certification No. 2001A032. C57BL/6 mice and Kunming mice, 18-22 g/mouse, provided by Laboratory Animal Center of Chinese Academy of Sciences, Shanghai Branch, with certification SYXK (Shanghai) 2004-0015. Gender: male or female, the same gender for each batch in experiment Animal numbers: 10 mice and 10 nude mice for each of positive control group and test group in experiment, and 20 for negative control group. 4. Experiment Design Dose Settings: doses for 20(R)-ginsenoside Rg3 octo-acetate, 20(R)-ginsenoside Rg3 octo-n-butyrate and 20(R)-ginsenoside Rg3 octo-n-propionate were set as high-dose group (0.3 mg/kg/d), medium-dose group (0.06 mg/kg/d), and low-dose group (0.012 mg/kg/d). Dosage regimen: oral administration, twice daily. human tumor model and cell-inoculated mouse model: po×14 bid; mouse tumor-inoculated model: po×10 bid. Control Trial: negative control group: given with the same volume of 5% CMC-Na as the test group, and the same dosage regimen as the test group. positive control group: Cyclophosphamide CTX 30 mg/kg, MMC 2 mg/kg and 5Fu 30 mg/kg by intraperitoneal or intravenous administration, once daily, for seven consecutive days. 5. Experiment Method and Key Steps 5.1 Anti-Tumor Test 5.1.1 Subcutaneous Inoculation Model
as §2

[3] = test system: human stomach cancer MGC cells; test: Human stomach cancer MGC in-situ inoculation, survival; conditions: for Animal body weight (g) Start / Animal body weight (g) end / Average survival (d) X ± SD / Life extension rate T/C × %: po × 14bid
Excerpt: as §3

[4] = test system: human intestinal cancer LOVO cells; conditions: po × 14bid
Excerpt: as §1
LOVO intestinal cancer cells (cultured in vitro) of logarithmic growth stage were taken under sterile condition and prepared into cell suspensions of about 1.8×10^7/ml using RPMI1640 culture medium as diluent. The nude mice were subjected to general anesthesia and cut in belly after routine disinfection to belly skin, the spleens were taken out and inoculated with LOVO intestinal cancer cell suspensions (0.05 ml/mouse) and then restored, the incisions were sutured, and the mice were placed in the cages and then put in the laminar flow rack.

[5] = Solubility of the isolated products; type: physicochemical
[6] = test system: human lung cancer A549 cells; test: Human lung cancer A549 (subcutaneous inoculation) metastasis model; conditions: po × 14bid

## CC(=O)OC[C@H]1O[C@@H](OC2CC[C@]3(C)C(CC[C@@]4(C)C3C[C@H](OC(C)=O)C3C([C@@](C)(O)CCC=C(C)C)CC[C@@]34C)C2(C)C)[C@H](OC2O[C@H](COC(C)=O)[C@@H](OC(C)=O)[C@H](OC(C)=O)[C@H]2OC(C)=O)[C@@H](OC(C)=O)[C@@H]1OC(C)=O (stereo partly drawn) [Rg3-octo-acetate, 20 (R)-ginsenoside Rg3 octaacetate]
[1]; 0.012 mg/kg/d
  Tumor inhibition rate %: 50.15%
  Tumor-bearing toe weight (g) X ± SD: 0.444 ± 0.09 g
[1]; 0.06 mg/kg/d
  Tumor inhibition rate %: 58.89%
  Tumor-bearing toe weight (g) X ± SD: 0.366 ± 0.09 g
[1]; 0.3 mg/kg/d
  Tumor inhibition rate %: 71.09%
  Tumor-bearing toe weight (g) X ± SD: 0.633 ± 0.08 g
[2]; 0.012 mg/kg/d
  Anti-metastasis rate %: 50.30%
  Lung clone numbers (mice) X ± SD: 1.38 ± 0.13
[2]; 0.06 mg/kg/d
  Anti-metastasis rate %: 58.90%
  Lung clone numbers (mice) X ± SD: 1.14 ± 0.12
[2]; 0.3 mg/kg/d
  Anti-metastasis rate %: 69.96%
  Lung clone numbers (mice) X ± SD: 0.84 ± 0.15
[3]; 0.012 mg/kg/d
  Animal body weight (g) Start: 19.8 g
  Animal body weight (g) end: 25.4 g
  Average survival (d) X ± SD: 38.84 ± 0.14 days
  Life extension rate T/C × %: 170.56%
[3]; 0.06 mg/kg/d
  Animal body weight (g) Start: 19.6 g
  Animal body weight (g) end: 24.6 g
  Average survival (d) X ± SD: 41.21 ± 0.11 days
  Life extension rate T/C × %: 180.98%
[3]; 0.3 mg/kg/d
  Animal body weight (g) Start: 19.7 g
  Animal body weight (g) end: 24.1 g
  Average survival (d) X ± SD: 46.04 ± 0.12 days
  Life extension rate T/C × %: 202.19%
[3]; high-dose groups, summary of Table 7-9: human stomach, intestinal and liver cancer
  life-prolonging effect versus positive control group: better than the positive control group
[4]; 0.012 mg/kg/d
  Average survival (d) X ± SD: 24.59 ± 4.5 days
  Life extension rate T/C × %: 179.99%
[4]; 0.06 mg/kg/d
  Average survival (d) X ± SD: 25.80 ± 4.8 days
  Life extension rate T/C × %: 188.90%
[4]; 0.3 mg/kg/d
  Average survival (d) X ± SD: 31.50 ± 5.1 days
  Life extension rate T/C × %: 230.59%
[5]; ethanol
  Solubility in ethanol: soluble
[5]; water
  Solubility in water: soluble
[6]; 0.012 mg/kg/d
  Anti-metastasis rate %: 49.91%
  Lung clone numbers (mice) X ± SD: 0.96 ± 0.12
[6]; 0.06 mg/kg/d
  Anti-metastasis rate %: 57.90%
  Lung clone numbers (mice) X ± SD: 0.81 ± 0.15
[6]; 0.3 mg/kg/d
  Anti-metastasis rate %: 68.52%
  Lung clone numbers (mice) X ± SD: 0.84 ± 0.13
